Assay results: US7713527B2, “Specific avian egg antibodies for disease prevention and improvement of growth performance” (priority 2006, dated 2010)
Where two headings read alike, the source gives them in different places.

Format: in vivo
Settings: Mecadox 1.0% in diet, no SDEP
Description: Thirty-six 18 day old piglets (6.3±0.2 kg) were allocated to six treatment groups, blocked by weight and given ad libitum access to feed and water (n=6/group)
Each group was administered varying doses of SDEP containing antibodies to ETEC K88 and/or antibiotics for 28 days (Table 1).
Animals were weighed at the end of phase 1 (14 d) and phase 2 (28 d), and average daily gains were calculated.
Thirty six crossbred (GAP Genetics, Winnipeg, MB, Canada) 18-d old pigs with an initial weight of 6.3±0.2 kg were allotted into six treatment groups: (1) control; (2) 0.1% SDEP; (3) 0.1% SDEP+antibiotics; (4) control+antibiotics; (5) 0.4% SDEP; (6) 0.4% SDEP+antibiotics.
Pigs were housed in stainless steel pens equipped with nipple waterers, stainless steel feeders, and plastic-coated expanded metal floors. The pens were located in an environmentally regulated building maintained at 25±2° C. with a 12-h light/dark cycle. Body weight and feed consumption were recorded after every phase and ad libitum access to feed and water was provided during the entire period of the study.
There were three pens per treatment and two pigs per pen. The pigs were fed a standard pig starter diet in phases 1 (Table 3) and 2 (Table 4). The diets were with or without spray-dried egg powder (SDEP) containing E. Coli K-88 antibodies and with or without antibiotics. The diets were fed in two phases. Both phases were fed for 14 days each. Pigs were allotted to treatments based on weaned weights and dam. Feed and water was available always. Pigs and feeders were weighed at the end of each phase to determine weight gains and feed disappearance.

In the case of `COC(=O)N/N=C/c1c[n+]([O-])c2ccccc2[n+]1[O-]` [Mecadox], the “Avg. daily gain / ADG” value (phase 1 (days 0-14)) is reported as 240 g, the “Avg. daily intake / ADFI” value (phase 1 (days 0-14)) is reported as 328 g and the Mean feed/gain (phase 1 (days 0-14)) is reported as 1.63. The “Mean final weight / End Weight” value (phase 1 (days 0-14)) was 9.6 kg, the “G:F” value (phase 1) was 0.72 and the “Avg. daily gain / ADG” value (phase 2 (days 14-28)) was 421 g. The “Avg. daily intake / ADFI” value (phase 2 (days 14-28)) was 532 g, the Mean feed/gain (phase 2 (days 14-28)) was 1.35 and the “Mean final weight / End Weight” value (phase 2 (days 14-28)) was 15.4 kg. For the same molecule, the “G:F” value (phase 2) was 0.74.
